Assay results: patent US20210228660A1, “USE OF PROTEASOME INHIBITOR AND […] PREPARATION OF ANTI-TUMOR MEDICAMENT” (GUANGZHOU VIROTECH PHARMACEUTICAL CO., LTD., priority 2018, published 2021)

Key:
Format in all cases: cell-based
[1] = tested on: human hepatocellular carcinoma Hep3B; experiment: Cell morphology observation under phase contrast microscope, Hep3B; conditions: 48 h, Bortezomib 5 nM, M1 virus 0.001 moi, FIG. 1
Method: (§1) a) Cell culture: human hepatocellular carcinoma Hep3B and Huh 7 were grown in DMEM complete medium containing 10% FBS, 100 U/ml penicillin and 0.1 mg/ml streptomycin; all cell strains were cultured and passaged in a closed incubator at a constant temperature of 37° C. (95% relative humidity) with 5% CO2, and the growth was observed under inverted microscope. The cells were passaged about every 2 to 3 days, and the cells in the logarithmic phase were used in the formal experiment.
(§2) b) Cell treatment and morphological observation: cells in the logarithmic growth phase and the DMEM complete culture medium (containing 10% fetal bovine serum and 1% double antibody) were selected to prepare cell suspension, and the cells were inoculated in a 24-well culture plate at a density of 2.5×10^4/well.

[2] = tested on: human hepatocellular carcinoma Huh 7; experiment: Cell morphology observation under phase contrast microscope, Huh 7; conditions: 48 h, Bortezomib 5 nM, M1 virus 0.1 moi, FIG. 1
Method: as §1, §2

[3] = tested on: human hepatocellular carcinoma Huh 7; experiment: MTT cell viability, Bortezomib and M1 virus, 48 h; conditions: Huh-7, 48 h, read-out: relative cell viability of tumor cells
Method: (§3) a) Inoculating cells, and drug administering treatment: cells in the logarithmic growth phase and the DMEM complete culture medium (containing 10% fetal bovine serum and 1% double antibody) were selected to prepare cell suspension, and were inoculated in a 96-well culture plate at a density of 4×10^3/well. 12 h later, the cells were completely adhered to the wall. The cells were divided into control group without medicament nor virus treatment, Bortezomib treatment group, M1 infection group and Bortezomib/M1 combined group.
b) MTT reacted with intracellular succinate dehydrogenase: after culturing for 48 h, 20 μl (5 mg/ml) of MTT was added to each well and incubated for 4 h, at this time, the granular bluish violet formazan crystals formed in living cells could be observed under microscope.
(§4) c) Dissolving formazan granules: the supernatant was carefully removed, DMSO 100 μl/well was added to dissolve the crystal, shaked in a microoscillator for 5 min, and then detect the optical density (OD value) of each well with wavelength of 570 nm on the enzyme-linked detector. The experiment was repeated for 3 times in each group. Cell viability=OD value of medicament treatment group/OD value of control group×100%.
The EC50 shift of the two curves was calculated, that is, the EC50 shift in FIG. 2, the larger the difference value was, the more significant the medicament synergized.

[4] = tested on: human hepatocellular carcinoma Huh 7; experiment: MTT cell viability, various proteasome inhibitors and M1 virus, 72 h
Method: as §3, with “proteasome inhibitor group (including CEP-18770, MLN-9708, ONX-0912),” for “Bortezomib treatment group,”, “infected” for “infection”, “proteasome inhibitor/M1” for “Bortezomib/M1”
b) MTT reacted with intracellular succinate dehydrogenase: after culturing for 72 h, 20 μl (5 mg/ml) of MTT was added to each well and incubated for 4 h, at this time, the granular bluish violet formazan crystals formed in living cells could be observed under microscope.
as §4, with “vibrate” for “shaked”, “detector.” for “detector. The experiment was repeated for 3 times in each group.”, “group x 100%.” for “group×100%.”

[5] = Homo sapiens, Huh-7, 72 h, read-out: relative cell viability of tumor cells

**Q.** What does the source list for CC(C)C[C@H](NC(=O)[C@H](Cc1ccccc1)NC(=O)c1cnccn1)B(O)O [Bortezomib]?
**A.** morphological changes of cells [1]: no significant change in cell morphology; morphological changes of cells [2]: no significant change in cell morphology; viability at 0.005 µM [3]: 99.7%

**Q.** For Ixazomib [MLN-9708], which “relative cell viability of tumor cells” value ([4]; FIG. 4B, Huh 7, MTT, 72 h, MLN-9708 5 nM, M1 virus MOI=0.1) is on record?
**A.** 77.7%

**Q.** How did the viability at 0.005 µM [4, 5] turn out when CC(C)C[C@H](NC(=O)[C@@H](NC(=O)c1cccc(-c2ccccc2)n1)[C@@H](C)O)B(O)O [CEP-18770, Delanzomib] was run?
**A.** 105%

**Q.** With COC[C@H](NC(=O)c1cnc(C)s1)C(=O)N[C@@H](COC)C(=O)N[C@@H](Cc1ccccc1)C(=O)[C@@]1(C)CO1 [ONX-0912, Oprozomib] as the compound, how does the viability at 0.05 µM [4, 5] read?
**A.** 70%
